Entries after “also recorded” stand apart in the source; their conditions may differ.
Columns and labels:
[1] = system: stem and progenitor cell population; experiment: hematopoietic recovery following irradiation in the adult zebrafish (kidney marrow); assay type: in vivo; conditions: ten days post irradiation; wnt8 induction 24-36 hours post irradiation
Protocol: (§1) It has been hypothesized that wnt activation regulates HSC self-renewal and repopulation. Wnt activation is also thought to be involved in carcinogenesis, however, making the concept of direct enhancement of wnt signaling problematic. Whether regulation of wnt activity by prostaglandin can effectively modulate HSC homeostasis in the adult, was determined by observing hematopoietic recovery following irradiation in the zebrafish. […] APCMin/+ mice have elevated β-catenin levels due to loss of APC function in the destruction complex.

bone marrow = bone marrow recovery following 5-FU chemical injury in APCMin/+ mice; assay type: in vivo; conditions: 1 mg/kg every 48 hrs, after 5-FU
Protocol: as §1

[2] = system: cKit+Sca1+ Lineage- (KSL) bone marrow cells; experiment: murine transplantation assay with purified HSCs, CFU-S12; assay type: in vivo, mice; conditions: concurrent administration with BIO; indomethacin 1 mg/kg and 2.5 mg/kg
Protocol: To assess whether prostaglandin levels regulate wnt activity in HSCs, murine transplantation assays were performed utilizing purified HSCs. FACS-isolated cKit+Sca1+ Lineage—(KSL) bone marrow cells were transplanted into lethally irradiated recipients.

adult zebrafish liver = experiment: liver regeneration and wound healing after 1/3 partial hepatectomy in adult zebrafish; assay type: in vivo
Excerpt: Following ⅓ partial hepatectomy, the zebrafish liver regenerates within five days to seven days.
As many molecular pathways controlling embryonic development mediate tissue homeostasis in the adult, the effects of prostaglandin signaling during liver regeneration were examined. […] Fish were revived and allowed to heal in fish water.
To test the requirement of functional prostaglandin signaling during regeneration, fish were exposed to the dual-specific cox inhibitor, indomethacin, from hour 6 to hour 18 following partial hepatectomy.
Liver Resection: Folling administration of tricaine anesthetic, ⅓ partial hepaectomy of the adult zebrafish liver was performed under brightfield imaging on a dissection microscope. An incision was made using microdissection scissors posterior to the heart on the left lateral portion of the abdomen.

β-catenin = experiment: partial hepatectomy in wild-type and APCMin/+ mice (IHC, western blot, BrdU); assay type: in vivo
Excerpt: Here, APC mutation caused increased total and nuclear β-catenin levels, particularly in the periportal region. […] These findings were confirmed by western blot. β-catenin may cause increased cell proliferation through its target cyclin D1.
Additionally, the present invention provides the first example that the activation of wnt/β-catenin signaling can enhance the rate of liver regeneration. […] Furthermore, the regeneratice advantage is evolutionarily conserved following hepatectomy in APCMin/+ mice. (Murine liver resections were performed as described in Green & Puder, 16 J. Investigational Surgery 99-102 (2003). Thus, the present invention provides for the manipulation of the wnt/β-catenin pathway as a way to enhance liver regeneration in patients, either after liver resection or during recovery from acute liver failure induced by toxins such as acetaminophen.

liver tumor = experiment: zebrafish DMBA liver tumor model, ultrasound biomicroscopy; assay type: in vivo
Excerpt: Although zebrafish are a valuable vertebrate model to study carcinogenesis, noninvasive imaging remains challenging because adult fish are not transparent. Tumors can be readily detected in vivo, however, using high-resolution microscopic ultrasound. This technique facilitates tissue perfusion calculations, cellular aspirates, tumor progression analysis, and responses to treatment. Ultrasound biomicroscopy allows longitudinal studies of tumor development and real-time assessment of therapeutic effects in the zebrafish model. The visualization techniques employed herein are described by Goessling et al., 4(7) Nature Methods 551-53 (2007). […] Tumor occurrence was monitored over about five months. Tumors were identified by ultrasound biomicroscopy. The cancerous fish were then treated with indomethacin for twelve hours over night, every three days for one month, and the tumors visualized as described. Goessling et al., 2007. […] After one month of drug treatment, the fish appeared healthy, but were sacrificed to confirm the presence of cancer by histology. […] In another experiment, detailed in FIG. 10B and FIG. 10C, fish were treated every week for tumor prevention. Here, treatment with the carcinogen led to liver tumors in wild-type fish, and to twice as many tumors in APC+/− mutant fish.

[3] = system: endodermal and hepatic progenitor cells; experiment: endodermal progenitors (foxA3) and liver size (lfabp) in zebrafish embryos, in situ hybridization; assay type: in vivo
Excerpt: To determine whether the interaction of PGE2 and wnt/β-catenin signaling is a conserved regulator of stem and progenitor cell populations in other tissues, endodermal and hepatic progenitor cells were examined during zebrafish development. […] ( 51/56), as detected by expression of liver fatty acid binding protein (lfabp). […] This finding is supported by the detection of various components of PGE2 signaling in foxA3 positive cells.
The APC mutant zebrafish to model constitutive activation of the wnt signaling pathway, was used to characterize the effects of the wnt/PG interaction in foxA3+ endodermal progenitors at 48 hpf. APC+/− embryos have enhanced foxA3 expression and an increased liver bud ( 88/93) as well as increased liver size ( 68/75) compared to wild-type siblings. […] Both cyclinD1 and cmyc were co-regulated by wnt and prostaglandin during development which may indicate that PGE2 exerts its effects on stem cells through enhanced cell cycling and proliferation.
In situ hybridization: Paraformaldehyde (PFA)-fixed embryos were processed for in situ hybridization using standard zebrafish protocols such as those found on the internet at, for example, ZFIN: The Zebrafish Model Organism Database (hosted by the Univ. Oregon, Eugene, Oreg.). The following RNA probes were used to detect alterations in endodermal and liver development: GFP, LFABP, sterol carrier protein, transferrin, foxA3, insulin, trypsin, and IFABP. Changes in expression compared to wild-type controls are reported as the # altered/# scored per genotype; a minimum of three independent experiments were conducted per analysis.

wnt activity = wnt activity in TOP:dGFP wnt reporter zebrafish embryos (in situ hybridization and qPCR for GFP); assay type: in vivo; conditions: for wnt activity in the developing brain, liver and gut: developing zebrafish, TOP:dGFP
Excerpt: An embodiment of the present invention provides for manipulation of the genetic interaction between PGE2 and wnt/β-catenin signaling, which regulates developmental specification of stem cells and regeneration. Briefly, prostaglandin (PG) E2 is required for the formation and function of hematopoietic stem cells (HSCs) in vivo, yet its mechanism of action in these cells is not completely understood.
The following RNA probes were used to detect alterations in endodermal and liver development: GFP, LFABP, sterol carrier protein, transferrin, foxA3, insulin, trypsin, and IFABP. Changes in expression compared to wild-type controls are reported as the # altered/# scored per genotype; a minimum of three independent experiments were conducted per analysis.

COc1ccc2c(c1)c(CC(=O)O)c(C)n2C(=O)c1ccc(Cl)cc1 [indomethacin]
effect on wnt8-induced 2.5-fold increase in stem and progenitor cell population [1]: significantly diminished | effect on the proliferative advantage (bone marrow recovery) in APCMin/+ mice (bone marrow): markedly diminished the proliferative advantage | effect on BIO-enhanced CFU-S number [2]: blocks this effect; also recorded: diminished CFU-S number back to baseline levels | liver architecture (adult zebrafish liver; at resection margin and throughout un-injured portions): altered architecture of the liver | liver regrowth compared to controls (adult zebrafish liver; exposure following resection (indomethacin hour 6 to 18; day 1 and day 3)): significantly reduced liver re-growth | complete regeneration of the liver (adult zebrafish liver; indomethacin: by day 5 post-resection): failed to regenerate fully | wound healing at the incision site (adult zebrafish liver; skin wounds following partial hepatectomy): severely inhibited; also recorded: prohibited wound healing | regenerative index (adult zebrafish liver; treatment 6 to 18 hours post resection, wild-type and APC mutant fish): significantly diminished | β-catenin, immunohistochemistry post resection (adult zebrafish liver; wild-type and APC+/− fish): decrease in overall β-catenin levels | β-catenin levels (β-catenin; 2.5 mg/kg bid sq, both genotypes): decreased β-catenin levels significantly | Cyclin D1 levels and cell proliferation (BrdU incorporation) (β-catenin; APCMin/+ mice): markedly diminished | P-GSK3b (serine 9), IHC (β-catenin; wild-type and APC+/− mice, confirmed by western blot): decreased amounts | solid portion of the tumor, ultrasound (liver tumor; after six treatments): decreased in size | tumor size, ultrasound (liver tumor; after ten treatments): shrunk substantially | tumor size, ultrasound (liver tumor; after three treatments (12 h overnight every three days)): tumor size increased | liver tumor formation (prevention) (liver tumor; weekly treatment, wild-type and especially APC+/− fish): decreased tumor formation | decrease in liver size (# altered/# scored) ([3]; APC+/− embryos): 61/67 | decrease in foxA3 positive progenitor cells (# altered/# scored) ([3]; APC+/− embryos, 48 hpf): 33/39 | decreased foxA3 expression (# altered/# scored) ([3]; wild-type embryos): 67/71 | smaller liver, lfabp expression (# altered/# scored) ([3]; wild-type embryos, 72 h.p.f.): 51/56 | liver size / liver development compared to controls ([3]; zebrafish embryos, by 72 hours post-fertilization): marked reduction in liver size | wnt activity in the developing brain, liver and gut (wnt activity): diminished wnt activity | wnt activity in the developing brain, liver and gut (wnt activity; listed as indomethicin): virtual absence of wnt signaling | wnt activity abolished in the AGM and GFP expression markedly decreased globally (# altered/# scored) (wnt activity; indomethacin 10 μM): 72/87

Source: patent publication US10736906B2, “Method to enhance tissue regeneration” (CHILDREN'S MEDICAL CENTER CORPORATION, priority 2006, dated 2020)
